Values after ≈ are worked out from the molar mass of the structure shown. Counter-ions that a name gives are not always drawn. Like-named read-outs stand apart in the source and are kept apart here.
Columns and labels:
[1] = system: Mycobacterium tuberculosis; test: Mycobacterium tuberculosis Serum Shift MIC Assay (Protocol 5); format: cell-based; settings: ATCC 35801 / ERDMAN
Text: Protocol 5. Protocol for Mycobacterium tuberculosis Serum Shift MIC Assay
Media Prep: • 1. […] It was important that all media and supplements were sterilized prior to MICs. • 2. Prepared all media below and inoculated as described in next section. Tested all compounds against Mtb using each media. • a. […] 7H9+0.2% glycerol+2 g/L dextrose+0.85 g/L NaCl+0.003 g/L catalase (0% FBS). • c. 2×7H9+0.2% glycerol+2 g/L dextrose+0.85 g/L NaCl+0.003 g/L catalase combined with equal volume Fetal Bovine Serum (50% FBS).
Inoculum Prep: • 1. Using BBL Prompt, picked 5-10 well-separated colonies and inoculated 1 ml sterile saline that came in the kit. Typically plates were two to three weeks of age when used for this assay due to the slow growth of this organism in culture. • 2. Vortexed well, then sonicated in water bath for 30 sec providing a suspension of ˜10^8 cells/ml. Actual density could be confirmed by plating out dilutions of this suspension. • 3. Prepared inoculum in each of the three media formulations by diluting the BBL Prompt suspension 1/200 (for example: transferred 0.2 ml of cells to 40 ml of medium) to obtain a starting cell density of […]. • 4. Used 100 μl cells (˜5×10^4 cells) to inoculate each microtiter well containing 1 μl of drug in DMSO (see below).
Drug Dilutions, Inoculation, MIC Determination: • 1. Control drug stocks Isoniazid and Novobiocin were prepared at 10 mM in 100% DMSO while Ciprofloxacin and Rifampin were prepared at 1 mM in 50% DMSO and 100% DMSO, respectively. Prepared dilutions—dispensed 100 μL of the stock solution into the first column of a 96-well plate. Prepared 11-step, 2-fold serial dilutions across the row for each compound by transferring 50 μl from column 1 into 50 μl of DMSO in column 2. Continued to transfer 50 μL from column 2 through column 11 while mixing and changing tips at each column. Left column 12 with DMSO only as a control. • 2. Transferred 1 μl of each dilution into an empty microtiter well prior to the addition of 100 μl of cells. The starting concentration of Isoniazid and Novobiocin was 100 μM after the dilution into medium+cells; the starting concentration of Ciprofloxacin and Rifampin was 10 μM after the dilution into medium+cells. Compound concentrations decreased in 2× steps moving across the rows of the microtiter plate. […] Measured background fluorescence at Excitation 492 nm, Emission 595 nm and returned the plate to the incubator for another 24 hours.
After 24 hours the fluorescence of each well was measured at Excitation 492 nm, Emission 595 nm.
Percent inhibition by a given compound was calculated as follows: Percent inhibition=100−([well fluorescence-average background fluorescence]/[DMSO control−average background fluorescence]×100). […]

[2] = Seven-Day Oral (Gavage) Toxicity and Toxicokinetics Study in Rats; format: in vivo, Crl:CD(SD) rats; settings: male rats
Text: Seven-Day Oral (Gavage) Toxicity and Toxicokinetics Study in Rats
Crl:CD(SD) rats were obtained from Charles River Laboratories of Stone Ridge, N.Y. The animals were laboratory bred and experimentally naïve. Rats were chosen because they are a species that is commonly used for nonclinical toxicity evaluations.
Animals received the test article or vehicle by oral gavage for 7 consecutive days and were terminated the day following completion of dosing. The first day of dosing was designated as Day 1 of the study. The animals were evaluated for changes in clinical signs, body weight, and other parameters as described below.
The vehicle and test article were administered by oral gavage once daily for 7 consecutive days at a dose volume of 10 mL/kg body weight for Group A and Groups B-D, respectively. The test article and vehicle were administered by oral gavage twice daily, approximately 8 hours apart, for 7 consecutive days at a dose volume of 10 mL/kg body weight for Group E and Group F, respectively. The actual volume administered to each animal was calculated and adjusted based on the most recent body weight of each animal.
During the treatment period, daily cageside observations were made and recorded predose and postdose (following the first dose only). The postdosing observations made during treatment occurred at the following times based on Cmax/Tmax for the two compounds from previous studies:
Prior to start of dosing, body weights were measured for randomization on Day 1. During the treatment, body weights were measured on Day 1 and Day 7. In addition, fasted body weights were measured prior to necropsy for calculation of organ/body weight ratios.
Throughout the study, food consumption was measured daily starting 3 days prior to start of dosing.
Blood samples for evaluation of hematology, coagulation, and serum chemistry parameters were collected from all animals from the retro-orbital plexus (under CO2/O2 anesthesia, for the main study animals) or jugular vein cannula (for the toxicokinetic animals) prior to necropsy. Due to residual heparin used to keep the cannulas patent for the toxicokinetic animals, coagulation samples from these rats, were not able to be analyzed. The animals were fasted overnight prior to blood collection. On the day of blood collection for clinical pathology analyses, the animals were not necropsied until after the blood was collected and the samples judged to be acceptable by the clinical pathology group.
On the 1st and 7th day of dosing, blood samples (approximately 0.5 mL/sample) were collected from the jugular vein cannula for all toxicokinetic animals at the timepoints listed below into K3EDTA-containing tubes. […] Prior to each collection, a small sample of blood (with heparin blocking solution) was removed from the cannula and discarded. A new syringe was placed on the cannula, and the protocol-required sample was taken. The syringe with the blood sample was removed, and a new syringe with saline attached to the cannula. Blood volume was replaced with an equal volume of saline and then blocking solution placed in the cannula. Each animal was returned to its cage until the next collection timepoint.
For all animals euthanized at scheduled necropsies, the kidneys, liver, and prostate gland were weighed. Following weighing, an approximate 1 gram sample of liver and kidney was weighed, transferred to Precellys 7 mL CK28 Tissue Homogenizing tubes (Cat. No. 0904-01), snap-frozen, and analyzed.
For all animals scheduled for the terminal necropsy, the kidneys, liver, and prostate were embedded in paraffin, sectioned and stained with hematoxylin and eosin for further examination by light microscopy. For Groups A, D, E, and F only, the remaining tissues listed above were embedded in paraffin, sectioned and stained with hematoxylin and eosin for further examination by light microscopy. […]

M. tuberculosis H37Rv [3] = test: Monotherapy against established TB in mice (dose-ranging activity study); format: in vivo; settings: for Log cfu (lung) / Log Reduction: BALB/c mice, M. tuberculosis H37Rv; for Log cfu (lung): 4 weeks of treatment; for Log Reduction: 4 weeks, vs untreated control
[4] = system: Non-Replicating (NRP) M. tuberculosis H37Ra; test: Non-replicating (NRP) M. tuberculosis H37Ra (luciferase) culture assay; format: cell-based; settings: Mycobacterium tuberculosis, 336 h, read on day 14
[5] = system: intracellular M. tuberculosis in THP-1 cells; test: microbe, parasite or virus in culture; format: cell-based; settings: Mycobacterium tuberculosis, H37RA; for MIC: read-out: MIC, Macrophage Cells
M. tuberculosis H37Rv [6] = test: Minimum bactericidal concentration (MBC) assay; format: cell-based; settings: 0.125 ug/mL
M. tuberculosis = test: microbe, parasite or virus in culture; format: cell-based; settings: for MIC: Mycobacterium tuberculosis, H37RA, read-out: MIC, Broth
[7] = Rat IV Study (pharmacokinetics); settings: male Sprague Dawley rats, plasma analyte = label
[8] = 100 mg/kg daily 5 days per week
[9] = Compound W dosed IV bolus 1 mg/kg in D5W
[10] = Compound W dosed IV bolus 5 mg/kg in D5W

**Q.** Which MIC ([1]; M. tuberculosis Erdman ATCC 35801, read-out: MIC) does the source give for `CCNC(=O)Nc1nc2cc(-c3cnc(C(C)(C)O)nc3)cc([C@H]3CCCO3)c2[nH]1` [Compound 13, methanesulfonic acid salt of 1-ethyl-3-[5-[2-(1-hydroxy-1-methyl-ethyl)pyrimidin-5-yl]-7-[(2R)-tetrahydrofuran-2-yl]-1H-benzimidazol-2-yl]urea] here?
**A.** 0.045 µg/mL

**Q.** And the MIC ([1]; M. tuberculosis Erdman ATCC 35801 with Mouse Serum)?
**A.** 2 µg/mL

**Q.** And the “dose levels at which no adverse toxicity was demonstrated” value ([2]; 7 days oral gavage)?
**A.** up to 200 mg/kg/day

**Q.** And the “adverse observations or effects on mean body weight” value ([2]; 7 days oral gavage, all dose groups)?
**A.** No adverse observations or effects on mean body weight

**Q.** What about the histopathological findings ([2]; any dose regimen) of the same compound?
**A.** No test article-related histopathological findings

**Q.** And the “NOEL (No-Observable-Effect-Level)” value ([2]; once a day for 7 days orally via gavage)?
**A.** 200 mg/kg

**Q.** What about the Mean food consumption ([2]; once daily 100 or 200 mg/kg, not considered adverse) of the same compound?
**A.** reduced

**Q.** What about the “exposures for different dosage levels” value ([2]; toxicokinetics) of the same compound?
**A.** dose related

**Q.** What does the source list for `NNC(=O)c1ccncc1` [Isoniazid, isonicotinohydrazide, reference compound]?
**A.** Log cfu (lung) (M. tuberculosis H37Rv [3]; 10 mg/kg daily 5 days per week): 5.01; Log Reduction (M. tuberculosis H37Rv [3]; 10 mg/kg daily 5 days per week): 0.99; IC50 [4]: > 50 µg/mL; MIC [5]: 0.012 µg/mL (≈ 0.0875 µM); Log cfu (M. tuberculosis H37Rv [6]): 4.28; Log Reduction (M. tuberculosis H37Rv [6]; vs untreated control): 1.85; MIC (M. tuberculosis): 0.21 µg/mL (≈ 1.53 µM)

**Q.** Which “Log cfu (lung)” value (M. tuberculosis H37Rv [3]; 10 mg/kg daily 5 days per week) does the source give for `CO[C@H]1/C=C/O[C@@]2(C)Oc3c(C)c(O)c4c(O)c(c(/C=N/N5CCN(C)CC5)c(O)c4c3C2=O)NC(=O)/C(C)=C\C=C\[C@H](C)C(O)[C@@H](C)[C@@H](O)[C@@H](C)[C@H](OC(C)=O)[C@@H]1C` (stereo partly drawn) [Rifampin, (7S,9E,11S,12R,13S,14R,15R,16R,17S,18S,19E,21Z)-2,15,17,27,29-pentahydroxy-11-methoxy-3,7,12,14,16,18,22-heptamethyl-26-{(E)-[(4-methylpiperazin-1-yl)imino]methyl}-6,23-dioxo-8,30-dioxa-24-azatetracyclo[23.3.1.1^4.7.0^5.28]triaconta-1(28),2,4,9,19,21,25(29),26-octaen-13-yl acetate] here?
**A.** 4.38

**Q.** What about the “Log Reduction” value (M. tuberculosis H37Rv [3]; 10 mg/kg daily 5 days per week) of the same compound?
**A.** 1.62

**Q.** And the IC50 [4]?
**A.** < 0.05 µg/mL

**Q.** And the MIC [5]?
**A.** 0.008 µg/mL

**Q.** What about the MIC (M. tuberculosis) of the same compound?
**A.** 0.03 µg/mL

**Q.** What does the source list for `CO[C@@H]1[C@@H](OC(N)=O)[C@@H](O)[C@H](Oc2ccc3c(O)c(NC(=O)c4ccc(O)c(CC=C(C)C)c4)c(=O)oc3c2C)OC1(C)C` [Novobiocin]?
**A.** IC50 ([5]; THP-1, 120 h, read-out: Mtb H37Ra in THP1 Cells (IC50)): 2.1 µg/mL (≈ 3.43 µM); Erdman (MIC) (M. tuberculosis): 61 µg/mL

**Q.** With `CC[C@@H](CO)NCCN[C@@H](CC)CO` [Ethambutol] as the compound, how does the MIC [5] read?
**A.** 1.26 µg/mL (≈ 6.17 µM)

**Q.** What about the MIC (M. tuberculosis) of the same compound?
**A.** 2.55 µg/mL (≈ 12.5 µM)

**Q.** For `CC(=O)NC[C@H]1CN(c2ccc(N3CCOCC3)c(F)c2)C(=O)O1` [Linezolid], which MIC [5] is on record?
**A.** 0.37 µg/mL (≈ 1.1 µM)

**Q.** And the MIC (M. tuberculosis)?
**A.** 0.53 µg/mL (≈ 1.57 µM)

**Q.** Which “Log cfu (lung)” value (M. tuberculosis H37Rv [3]; 10 mg/kg daily 5 days per week) does the source give for `CCNC(=O)Nc1nc2cc(-c3cnc(C(C)(C)OP(=O)([O-])[O-])nc3)c(F)c([C@H]3CCCO3)c2[nH]1.[Na+].[Na+]` [Compound W, disodium (R)-2-(5-(2-(3-ethylureido)-6-fluoro-7-(tetrahydrofuran-2-yl)-1H-benzo[d]imidazol-5-yl)pyrimidin-2-yl)propan-2-yl phosphate] here?
**A.** 6.38

**Q.** What about the “Log Reduction” value (M. tuberculosis H37Rv [3]; 10 mg/kg daily 5 days per week) of the same compound?
**A.** 0

**Q.** What about the “Log cfu (lung)” value (M. tuberculosis H37Rv [3]; 30 mg/kg daily 5 days per week) of the same compound?
**A.** 5.51

**Q.** And the “Log Reduction” value (M. tuberculosis H37Rv [3]; 30 mg/kg daily 5 days per week)?
**A.** 0.49

**Q.** And the “Log cfu (lung)” value (M. tuberculosis H37Rv [3]; [8])?
**A.** 5.35

**Q.** And the “Log Reduction” value (M. tuberculosis H37Rv [3]; [8])?
**A.** 0.65

**Q.** And the “activity compared with no treatment” value (M. tuberculosis H37Rv [3]; at 30 and 100 mg/kg, p<0.01 by one-way ANOVA with Dunnett's post-test)?
**A.** superior to no treatment

**Q.** And the AUCextrap [7, 9]?
**A.** 419 ng·h/mL

**Q.** And the Cl_obs [7, 9]?
**A.** 46.7 mL/min/kg

**Q.** And the Vss_obs [7, 9]?
**A.** 0.38 L/kg

**Q.** And the t½ [7, 9]?
**A.** 0.9 h

**Q.** What about the AUCextrap [7, 10] of the same compound?
**A.** 1120 ng·h/mL

**Q.** And the Cl_obs [7, 10]?
**A.** 84.6 mL/min/kg

**Q.** What about the Vss_obs [7, 10] of the same compound?
**A.** 5.8 L/kg

**Q.** What about the t½ [7, 10] of the same compound?
**A.** 7.2 h

Source: patent US9937192B2, “Combination therapy to treat mycobacterium diseases” (priority 2012, dated 2018)
